Patent US4611001A, “Antimycotic pyrazolotetrathiepins” (E. I. Du Pont de Nemours and Company, priority 1985, dated 1986)
Values after ≈ are worked out from the molar mass of the structure shown. Values belong to the compound of their own block, whether it stands above or below them.

Experiments:
fungi = assay: in vitro antifungal (antimycotic) activity, general statement; format: cell-based; settings: by-product; test not specified
Text: (§1) The fused pyrazolotetrathiepins of the invention are useful as antimycotic agents. The data is a result of different state of the art protocols, which employ either agar dilution or microtiter broth dilution techniques.

[1] = system: Candida albicans (CAND-1); assay: Protocol 4: microtiter broth dilution MIC, Yeast Nitrogen Base broth pH 7.0; format: cell-based, Candida albicans ATCC 11651; settings: for MIC: Candida albicans
Text: as §1
(§2) The test organisms used are two yeasts, Candida albicans ATCC 11651 (CAND-1), C. albicans ATCC e10231 (CAND-2) and two dermatophyte strains. Microsporum gypseum ATCC e9083 (MICRO-1) and Trichophyton rubrum ATCC 18756 (TRICH-1). These organisms are standardized to a concentration of 10^7 organisms/mL, aliquoted and frozen at -70°.
(§3) The compounds are dissolved in dimethyl sulfoxide (DMSO) and tested at specific concentrations required for the particular assay.
(§4) Appropriate standards are included with each assay. Their minimal inhibitory concentrations (MIC) values are shown in Table 4 according to the particular protocol used. Stock solutions of standard agents are stored at -70° and diluted the day of the assay.
(§5) Protocols 4 and 5 both utilize a standard microtiter broth dilution method described by Barry (Antimicrobic Susceptibilty Test: Principles and Practices, Lea and Febiger, 1976) but each uses a different medium. Protocol 4 uses Yeast Nitrogen Base broth pH 7.0 [Shadomy, S. Applied Microbiology, 17, 871-877 (1969)] while protocol 5 uses EMEM broth pH 7.4. The test organisms, CAND-1 and CAND-2 are diluted in the appropriate broth to achieve an inoculum of 1×10^4 CFUs/mL.
(§6) The compounds are tested from 100 μg/mL-0.4 μg/mL in 10-two fold serial dilutions and the assay is incubated at 37°, 5% CO2 for 24 hrs. MFC's are then determined as previously described but the plates are incubated under the conditions appropriate for Candida spp.

[2] = system: Candida albicans (CAND-1); assay: Protocol 5: microtiter broth dilution MIC/MFC, EMEM broth pH 7.4; format: cell-based, Candida albicans ATCC 11651
Text: as §1, §2, §3, §4, §5, §6

[3] = system: Candida albicans (CAND-2); assay: Protocol 4: microtiter broth dilution MIC, Yeast Nitrogen Base broth pH 7.0; format: cell-based, C. albicans ATCC e10231; settings: for MIC: Candida albicans
Text: as §1, §2, §3, §4, §5, §6

[4] = system: Trichophyton rubrum (TRICH-1); assay: Protocol 1: agar dilution MIC, Sabouraud dextrose agar; format: cell-based, Trichophyton rubrum ATCC 18756
Text: as §1, §2, §3
(§7) Appropriate standards are included with each assay. Their minimal inhibitory concentrations (MIC) values are shown in Table 4 according to the particular protocol used. Stock solutions of standard agents are stored at -70° and diluted the day of the assay. […]
(§8) The compound is tested at four specific concentrations within the range of 100 μg/mL-0.04 μg/mL and is incorporated directly into 20 mL molten agar (50°). […] The plates are incubated at ambient temperature for seven days and the MIC values determined.

[5] = system: Candida albicans (CAND-2); assay: Protocol 5: microtiter broth dilution MIC/MFC, EMEM broth pH 7.4; format: cell-based, C. albicans ATCC e10231
Text: as §1, §2, §3, §4, §5, §6

[6] = system: Microsporum gypseum (MICRO-1); assay: Protocol 1: agar dilution MIC, Sabouraud dextrose agar; format: cell-based, Microsporum gypseum ATCC e9083; settings: Nannizzia gypsea
Text: as §1, §2, §3, §7, §8

[7] = system: Microsporum gypseum (MICRO-1); assay: Protocol 3: microtiter broth dilution MIC/MFC for dermatophytes, EMEM; format: cell-based, Microsporum gypseum ATCC e9083; settings: Nannizzia gypsea
Text: as §1, §2, §3, §4
(§9) Protocol 3 is a microtiter broth dilution assay that has been adapted for dermatophytes using EMEM and is described by Granade and Artis, J. Clin. Micro., 6, 1043-1047 (1982). Both strains of dermatophytes, MICRO-1 and TRICH-1 are diluted in broth to achieve an inoculum of 1×10^4 spores/mL. The compound is serially diluted from 100 μg/mL to 0.4 μg/mL in 10-two fold dilutions. The test is incubated at 30° for 72 hrs and the MIC values are determined. The minimum fungicidal concentration (MFC) assay is performed using the 72 hr microtiter plates. (Szoka, F., Mycology Observer, November-December, 1983). These plates are shaken vigorously and lμl/broth well is transferred with a micropipetter onto the appropirate well on a 24 well agar (EMEM) plate. These plates are then incubated at 30° for 72 hrs and read for MFC's.

[8] = system: Trichophyton rubrum (TRICH-1); assay: as above; format: cell-based, Trichophyton rubrum ATCC 18756
Text: as §1, §2, §3, §4, §9

[9] = system: Microsporum gypseum (MICRO-1); assay: Protocol 2: agar dilution MIC, Eagle's Minimum Essential Medium Agar (EMEM); format: cell-based, Microsporum gypseum ATCC e9083; settings: Nannizzia gypsea
Text: as §1, §2, §3, §4
(§10) Protocols 1 & 2 use a modification of the agar dilution method (Barry, A. L., The Antimicrobic Susceptibility Test: Principles and Practices, Lea and Febiger, 1976) with either Sabouraud dextrose agar (protocol 1) or Eagle's Minimum Essential Medium Agar (EMEM) (protocol 2).
(§11) The compound is tested at four specific concentrations within the range of 100 μg/mL-0.04 μg/mL and is incorporated directly into 20 mL molten agar (50°). The plates are then inoculated with the spore suspensions of MICRO-1 and TRICH-1 at 5×10^6 spores/mL using a multi point inoculator. The plates are incubated at ambient temperature for seven days and the MIC values determined.

[10] = system: Trichophyton rubrum (TRICH-1); assay: as above; format: cell-based, Trichophyton rubrum ATCC 18756
Text: as §1, §2, §3, §4, §10, §11

[11] = system: Candida albicans (CAND-1); assay: In vitro dilution MIC, protocol not given; format: cell-based, Candida albicans ATCC 11651; settings: up to 100 μg/mL
Text: as §1, §2, §3
as §5, with “The test organisms, CAND-1 and CAND-2 are diluted in the appropriate broth to achieve an inoculum of 1×10^4 CFUs/mL.” left out
as §6

[12] = system: Candida albicans (CAND-2); assay: In vitro dilution MIC, protocol not given; format: cell-based, C. albicans ATCC e10231; settings: up to 100 μg/mL
Text: as §1, §2, §3
as §5, with “The test organisms, CAND-1 and CAND-2 are diluted in the appropriate broth to achieve an inoculum of 1×10^4 CFUs/mL.” left out
as §6

[13] = Candida albicans, Protocol 5, 37°, 5% CO2, 24 hrs, read-out: MIC CAND-1
[14] = Candida albicans, Protocol 5, 37°, 5% CO2, 24 hrs, read-out: MIC CAND-2
[15] = Protocol 4, mean of five determinations ± standard deviation
[16] = Protocol 5, mean of five determinations ± standard deviation
[17] = Protocol 4, mean of five determinations ± standard deviation, read-out: MIC CAND-1 of standards
[18] = Candida albicans, Protocol 5, mean of five determinations ± standard deviation, read-out: MIC CAND-1 of standards
[19] = Protocol 4, mean of five determinations ± standard deviation, read-out: MIC CAND-2 of standards
[20] = Candida albicans, Protocol 5, mean of five determinations ± standard deviation, read-out: MIC CAND-2 of standards
[21] = 168 h, Protocol 2, ambient temperature, seven days, read-out: MIC MICRO-1
[22] = 168 h, Protocol 2, ambient temperature, seven days, read-out: MIC TRICH-1

Structure (SMILES): CC1(C)SSc2cn(-c3ccccc3)nc2SS1 [3,3-dimethyl-7-phenyl-1,2,4,5-pyrazolotetrathiepin]
activity (in words) (fungi): inactive

MIC ([1]; Protocol 4, 37°, 5% CO2, 24 hrs, read-out: MIC CAND-1): 12.5 µg/mL (≈ 49.9 µM)
MIC [2, 13]: 3.2 µg/mL (≈ 12.8 µM)
MIC ([3]; Protocol 4, 37°, 5% CO2, 24 hrs, read-out: MIC CAND-2): 6.3 µg/mL (≈ 25.2 µM)
MIC ([4]; 168 h, Protocol 1, ambient temperature, seven days, read-out: MIC TRICH-1): 4 µg/mL (≈ 16 µM)
MIC [5, 14]: 1.6 µg/mL (≈ 6.39 µM)
MIC ([6]; 168 h, Protocol 1, ambient temperature, seven days, read-out: MIC MICRO-1): 4 µg/mL (≈ 16 µM)
Structure (SMILES): Cn1cc2c(n1)SSSC(C)(C)S2 [Example 5, 2,2-Dimethyl-7-methyl-1,3,4,5-pyrazolotetrathiepin]

Structure (SMILES): C[C@@H]1[C@H](O)[C@@H](C)/C=C/C=C/CC/C=C/C=C/C=C/C=C/C(O[C@H]2O[C@H](C)[C@@H](O)[C@H](N)[C@@H]2O)CC2O[C@](O)(CC(O)C(O)CCC(O)CC(O)CC(O)CC(=O)O[C@H]1C)CC(O)C2C(=O)O (stereo partly shown) [Nystatin]
MIC CAND-1 of standards [1, 15]: 6.0 ± 2.0 µg/mL
MIC CAND-1 of standards [2, 16]: 5.0 ± 0 µg/mL
MIC CAND-2 of standards [3, 15]: 5.0 ± 1.5 µg/mL
MIC CAND-2 of standards [5, 16]: 4.5 ± 1.0 µg/mL

MIC [1, 17]: 0.15 ± 0.1 µg/mL (≈ 0.282 µM)
MIC [2, 18]: 0.3 ± 0.04 µg/mL (≈ 0.565 µM)
MIC [3, 19]: 0.22 ± 0.04 µg/mL (≈ 0.414 µM)
MIC [5, 20]: 0.2 ± 0.04 µg/mL (≈ 0.376 µM)
Structure (SMILES): CC(=O)N1CCN(c2ccc(OCC3COC(Cn4ccnc4)(c4ccc(Cl)cc4Cl)O3)cc2)CC1 (stereo not shown) [Ketoconazole]

MIC [1, 17]: 0.7 ± 0.2 µg/mL (≈ 5.42 µM)
MIC [2, 18]: 1.1 ± 0.4 µg/mL (≈ 8.52 µM)
MIC [3, 19]: 1.1 ± 0.4 µg/mL (≈ 8.52 µM)
MIC [5, 20]: 1.3 ± 0.4 µg/mL (≈ 10.1 µM)
Structure (SMILES): Nc1nc(=O)[nH]cc1F [5-Fluorocytosine]

MIC ([7]; Protocol 3, 30°, 72 hrs, read-out: MIC MICRO-1): 12.5 µg/mL (≈ 49.9 µM)
MIC [2, 13]: 25 µg/mL (≈ 99.8 µM)
MIC ([8]; Protocol 3, 30°, 72 hrs, read-out: MIC TRICH-1): 12.5 µg/mL (≈ 49.9 µM)
MIC [5, 14]: 25 µg/mL (≈ 99.8 µM)
Structure (SMILES): Cn1cc2c(n1)SSC(C)(C)SS2 [Example 4, 3,3-Dimethyl-7-methyl-1,2,4,5-pyrazolotetrathiepin]
MFC ([7]; Protocol 3, in brackets, subculture on EMEM agar 30°, 72 hrs, read-out: MFC MICRO-1 (minimum fungicidal concentration)): 25 µg/mL (≈ 99.8 µM)
MFC ([2]; Candida albicans, Protocol 5, in brackets, read-out: MFC CAND-1 (minimum fungicidal concentration)): 50 µg/mL (≈ 200 µM)
MFC ([8]; Protocol 3, in brackets, subculture on EMEM agar 30°, 72 hrs, read-out: MFC TRICH-1 (minimum fungicidal concentration)): 25 µg/mL (≈ 99.8 µM)
MFC ([5]; Candida albicans, Protocol 5, in brackets, read-out: MFC CAND-2 (minimum fungicidal concentration)): 50 µg/mL (≈ 200 µM)

MIC ([7]; Protocol 3, mean of five determinations ± standard deviation, read-out: MIC MICRO-1 of standards): 5.4 ± 2 µg/mL (≈ 15.3 µM)
MIC ([4]; Protocol 1, mean of five determinations ± standard deviation, read-out: MIC TRICH-1 of standards): 1.8 ± 0.7 µg/mL (≈ 5.1 µM)
MIC ([8]; Protocol 3, mean of five determinations ± standard deviation, read-out: MIC TRICH-1 of standards): 6.3 µg/mL (≈ 17.9 µM)
MIC ([6]; Protocol 1, mean of five determinations ± standard deviation, read-out: MIC MICRO-1 of standards): 2 ± 0.7 µg/mL (≈ 5.67 µM)
MIC ([9]; Protocol 2, mean of five determinations ± standard deviation, read-out: MIC MICRO-1 of standards): 4.5 ± 3 µg/mL (≈ 12.8 µM)
MIC ([10]; Protocol 2, mean of five determinations ± standard deviation, read-out: MIC TRICH-1 of standards): 9.4 ± 4 µg/mL (≈ 26.6 µM)
Structure (SMILES): COC1=CC(=O)C[C@@H](C)[C@]12Oc1c(Cl)c(OC)cc(OC)c1C2=O [Griseofulvin]

MIC CAND-1 (in words) [11]: Inactive at 100 μg/mL
MIC CAND-2 (in words) [12]: Inactive at 100 μg/mL
MIC [9, 21]: 1 µg/mL (≈ 3.2 µM)
MIC [10, 22]: 0.2 µg/mL (≈ 0.64 µM)
Structure (SMILES): CC1(C)SSSc2nn(-c3ccccc3)cc2S1 [Example 2, 2,2-Dimethyl-7-phenyl-1,3,4,5-pyrazolotetrathiepin]

Structure (SMILES): Clc1ccc(COC(Cn2ccnc2)c2ccc(Cl)cc2Cl)c(Cl)c1 (stereo not shown) [Miconazole]
MIC ([1]; read-out: MIC CAND-1 of standards): 0.36 ± 0.12 µg/mL (≈ 0.865 µM)
MIC ([2]; Candida albicans, read-out: MIC CAND-1 of standards): 0.5 ± 0.4 µg/mL (≈ 1.2 µM)
MIC ([3]; read-out: MIC CAND-2 of standards): 0.5 ± 0.2 µg/mL (≈ 1.2 µM)
MIC ([5]; Candida albicans, read-out: MIC CAND-2 of standards): 0.5 ± 0.4 µg/mL (≈ 1.2 µM)

MIC CAND-1 of standards [1, 15]: 0.6 ± 0.2 µg/mL
MIC CAND-1 of standards [2, 16]: 0.5 ± 0.3 µg/mL
MIC CAND-2 of standards [3, 15]: 0.5 ± 0.3 µg/mL
MIC CAND-2 of standards [5, 16]: 0.7 ± 0.3 µg/mL
Structure (SMILES): C[C@@H]1[C@H](O)[C@@H](C)/C=C/C=C/C=C/C=C/C=C/C=C/C=C/[C@H](O[C@@H]2O[C@H](C)[C@@H](O)[C@H](N)[C@@H]2O)C[C@@H]2O[C@](O)(C[C@@H](O)C[C@@H](O)[C@H](O)CC[C@@H](O)C[C@@H](O)CC(=O)O[C@H]1C)C[C@H](O)[C@H]2C(=O)O [Amphotericin B]

MIC CAND-1 (in words) [11]: Inactive at 100 μg/mL
MIC CAND-2 (in words) [12]: Inactive at 100 μg/mL
MIC [9, 21]: 1 µg/mL (≈ 3.2 µM)
MIC [10, 22]: 1 µg/mL (≈ 3.2 µM)
Structure (SMILES): CC1(C)SSSc2cn(-c3ccccc3)nc2S1 [Example 3, 4,4-Dimethyl-7-phenyl-1,2,3,5-pyrazolotetrathiepin]
